These results are taken from patent US20150290357A1, “ANTIMICROBIAL ADHESIVE” (GeneJet Biotech, Inc., priority 2014, published 2015).

In the assay the test system is staphylococcus aureus. In words: Antimicrobial inhibition zone test based on ATCC6538p. The format is cell-based. The procedure: The antimicrobial adhesive prepared by the foregoing method is placed in a 7 ml glass vial and it is used to perform stability test for Ag/PP particulates, polymerization test for the cyanoacrylate monomers (as shown in Table 1), antimicrobial test for staphylococcus aureus (as shown in Table 2) and antimicrobial test for escherichia coli (as shown in Table 3).

Each structure is given as a SMILES string.

For `C=C(C#N)C(=O)OC(C)CCCCCC` (centres unmarked) [Experiment C, 2-octyl cyanoacrylate], for the setting “compared to Control (filter paper)”, the “Increased in the diameter of inhibition zone (%) (compared to Control)” value is 16.4%. The “Diameter of inhibition zone” value (on filter paper, ATCC6538p) is given as 0.93 cm.
